From patent EP0025288A1, “Derivatives of monic acid, processes for their preparation, compositions containing them and their preparation” (priority 1979, dated 1981)

Experiments:
Assay type in all cases: cell-based
M. suipneumoniae HK(2) = experiment: MIC, anti-mycoplasmal, Friis broth solidified with 0.9% agarose; settings: inoculum 10^3 to 10^5 C.F.U., 6 days incubation at 37°C
[1] = system: M. suipneumoniae PW/C/210; experiment: as above; settings: inoculum 10^3 to 10^5 C.F.U., 6 days incubation at 37°C
[2] = system: Pasteurella multocida 1633; experiment: MIC, human bacteria, serial dilution in nutrient agar; settings: nutrient agar containing 5% 'chocolated' horse blood
Bacillus subtilis 6633 = experiment: as above; settings: nutrient agar containing 5% 'chocolated' horse blood
[3] = system: Erysipelothrix rhusiopathiae NCTC 8163; experiment: MIC, veterinary bacteria; settings: veterinary bacteria (Table 2)
Staph aureus Russell = experiment: MIC, human bacteria, serial dilution in nutrient agar; settings: nutrient agar containing 5% 'chocolated' horse blood
M. suipneumoniae LABER = experiment: MIC, anti-mycoplasmal, Friis broth solidified with 0.9% agarose; settings: inoculum 10^3 to 10^5 C.F.U., 6 days incubation at 37°C
[4] = system: M. bovigenitalium ATCC 14173; experiment: as above; settings: inoculum 10^3 to 10^5 C.F.U., 6 days incubation at 37°C
[5] = system: Corynebacterium pyogenes CY1; experiment: MIC, veterinary bacteria; settings: veterinary bacteria (Table 2)
Past multocida PA1 = experiment: MIC, veterinary bacteria; settings: veterinary bacteria (Table 2)
M. suipneumoniae Str. 11 = experiment: MIC, anti-mycoplasmal, Friis broth solidified with 0.9% agarose; settings: inoculum 10^3 to 10^5 C.F.U., 6 days incubation at 37°C
E coli ESS = experiment: MIC, human bacteria, serial dilution in nutrient agar; settings: nutrient agar containing 5% 'chocolated' horse blood
Past multocida PA2 = experiment: MIC, veterinary bacteria; settings: veterinary bacteria (Table 2)
Strep pyogenes B 2788 = experiment: MIC, human bacteria, serial dilution in nutrient agar; settings: nutrient agar containing 5% 'chocolated' horse blood
S typhimurium S18 = experiment: MIC, veterinary bacteria; settings: veterinary bacteria (Table 2)
Strep pyogenes C 641848 = experiment: MIC, human bacteria, serial dilution in nutrient agar; settings: Strep pyogenes C 641848 (footnote c); nutrient agar containing 5% 'chocolated' horse blood
M. hyorhinis ATCC 23234 = experiment: MIC, anti-mycoplasmal, Friis broth solidified with 0.9% agarose; settings: inoculum 10^3 to 10^5 C.F.U., 6 days incubation at 37°C
M. dispar NCTC 10125 = experiment: as above; settings: inoculum 10^3 to 10^5 C.F.U., 6 days incubation at 37°C
Staph aureus Oxford [6] = experiment: MIC, veterinary bacteria; settings: veterinary bacteria (Table 2)
[7] = system: Strep suis (group D) SPS11; experiment: MIC, veterinary bacteria; settings: veterinary bacteria (Table 2)
M. gallisepticum S6 = experiment: MIC, anti-mycoplasmal, Friis broth solidified with 0.9% agarose; settings: inoculum 10^3 to 10^5 C.F.U., 6 days incubation at 37°C
M. suipneumoniae JF 435 = experiment: as above; settings: inoculum 10^3 to 10^5 C.F.U., 6 days incubation at 37°C
[8] = system: M. hyosynoviae ATCC 25591; experiment: as above; settings: inoculum 10^3 to 10^5 C.F.U., 6 days incubation at 37°C
Staph aureus Oxford [9] = experiment: MIC, human bacteria, serial dilution in nutrient agar; settings: nutrient agar containing 5% 'chocolated' horse blood
Strep faecalis I = experiment: as above; settings: nutrient agar containing 5% 'chocolated' horse blood
M. suipneumoniae TAM 6N = experiment: MIC, anti-mycoplasmal, Friis broth solidified with 0.9% agarose; settings: inoculum 10^3 to 10^5 C.F.U., 6 days incubation at 37°C
Bord bronchiseptica BO8 = experiment: MIC, veterinary bacteria; settings: veterinary bacteria (Table 2)
[10] = system: Corynebacterium zerosis 9755; experiment: MIC, human bacteria, serial dilution in nutrient agar; settings: nutrient agar containing 5% 'chocolated' horse blood
M. suipneumoniae NB12 = experiment: MIC, anti-mycoplasmal, Friis broth solidified with 0.9% agarose; settings: inoculum 10^3 to 10^5 C.F.U., 6 days incubation at 37°C
S dublin S7 = experiment: MIC, veterinary bacteria; settings: veterinary bacteria (Table 2)
M. hyorhinis ATCC 25021 = experiment: MIC, anti-mycoplasmal, Friis broth solidified with 0.9% agarose; settings: inoculum 10^3 to 10^5 C.F.U., 6 days incubation at 37°C
Past Haemolytica PA5 = experiment: MIC, veterinary bacteria; settings: veterinary bacteria (Table 2)
Strep pneumoniae CN33 = experiment: MIC, human bacteria, serial dilution in nutrient agar; settings: nutrient agar containing 5% 'chocolated' horse blood
M. suipneumoniae MS 16 = experiment: MIC, anti-mycoplasmal, Friis broth solidified with 0.9% agarose; settings: inoculum 10^3 to 10^5 C.F.U., 6 days incubation at 37°C
[11] = system: Staph aureus 152 (pen sens); experiment: MIC, veterinary bacteria; settings: veterinary bacteria (Table 2)
K aerogenes A = experiment: MIC, human bacteria, serial dilution in nutrient agar; settings: nutrient agar containing 5% 'chocolated' horse blood
P mirabilis 889 = experiment: as above; settings: nutrient agar containing 5% 'chocolated' horse blood
[12] = system: M. suipneumoniae NCTC 10110; experiment: MIC, anti-mycoplasmal, Friis broth solidified with 0.9% agarose; settings: inoculum 10^3 to 10^5 C.F.U., 6 days incubation at 37°C
Staph aureus W2827 = experiment: MIC, human bacteria, serial dilution in nutrient agar; settings: nutrient agar containing 5% 'chocolated' horse blood
Bord bronchisptica BO9 = experiment: MIC, veterinary bacteria; settings: veterinary bacteria (Table 2)
E coli NCTC 10418 [13] = experiment: MIC, veterinary bacteria; settings: veterinary bacteria (Table 2)
[14] = system: Neisseria catarrhalis 1502; experiment: MIC, human bacteria, serial dilution in nutrient agar; settings: Neisseria catarrhalis 1502 (footnote a); nutrient agar containing 5% 'chocolated' horse blood
Strep agalactiae SPA1 = experiment: MIC, veterinary bacteria; settings: veterinary bacteria (Table 2)
Strep pyogenes A R80/421 = experiment: MIC, human bacteria, serial dilution in nutrient agar; settings: Strep pyogenes A R80/421 (footnote b); nutrient agar containing 5% 'chocolated' horse blood
E coli NCTC 10418 [15] = experiment: as above; settings: nutrient agar containing 5% 'chocolated' horse blood
[16] = system: M. suipneumoniae J2206/183b; experiment: MIC, anti-mycoplasmal, Friis broth solidified with 0.9% agarose; settings: inoculum 10^3 to 10^5 C.F.U., 6 days incubation at 37°C
Ps aeruginosa 10662 = experiment: MIC, human bacteria, serial dilution in nutrient agar; settings: nutrient agar containing 5% 'chocolated' horse blood
[17] = system: Haemophilus influenzae Wy21; experiment: as above; settings: nutrient agar containing 5% 'chocolated' horse blood
[18] = system: Staph aureus B4 (pen resis); experiment: MIC, veterinary bacteria; settings: veterinary bacteria (Table 2)
Strep uberis SPU1 = experiment: MIC, veterinary bacteria; settings: veterinary bacteria (Table 2)
Strep dysgalaciae SPD1 = experiment: MIC, veterinary bacteria; settings: veterinary bacteria (Table 2)
M. suipneumoniae UCD 1 = experiment: MIC, anti-mycoplasmal, Friis broth solidified with 0.9% agarose; settings: inoculum 10^3 to 10^5 C.F.U., 6 days incubation at 37°C
M. pneumoniae ATCC 15492 = experiment: as above; settings: inoculum 10^3 to 10^5 C.F.U., 6 days incubation at 37°C
M. bovis NCTC 10131 = experiment: microbe, parasite or virus in culture; settings: M. bovis NCTC 10131; inoculum 10^3 to 10^5 C.F.U., 6 days incubation at 37°C
E coli E1 = experiment: MIC, veterinary bacteria; settings: veterinary bacteria (Table 2)
[19] = system: M. suipneumoniae ATCC 25095; experiment: MIC, anti-mycoplasmal, Friis broth solidified with 0.9% agarose; settings: inoculum 10^3 to 10^5 C.F.U., 6 days incubation at 37°C

## Cyclohexan-4-onyl monate A [Example 8]
M. suipneumoniae HK(2)
  in vitro MIC: 0.5 µg/mL
[1]
  in vitro MIC: 0.25 µg/mL
[2]
  MIC: 0.5 µm/ml
Bacillus subtilis 6633
  MIC: 0.5 µm/ml
[3]
  MIC: 10 µg/mL
Staph aureus Russell
  MIC: 2.5 µm/ml
M. suipneumoniae LABER
  in vitro MIC: 0.25 µg/mL
[4]
  in vitro MIC: 0.025 µg/mL
[5]
  MIC: >80 µg/mL
Past multocida PA1
  MIC: .312 µg/mL
M. suipneumoniae Str. 11
  in vitro MIC: 0.25 µg/mL
E coli ESS
  MIC: 0.5 µm/ml
Past multocida PA2
  MIC: .156 µg/mL
Strep pyogenes B 2788
  MIC: 0.5 µm/ml
S typhimurium S18
  MIC: >80 µg/mL
Strep pyogenes C 641848
  MIC: ^c0.5 µm/ml
M. hyorhinis ATCC 23234
  in vitro MIC: 0.25 µg/mL
M. dispar NCTC 10125
  in vitro MIC: 0.1 µg/mL
Staph aureus Oxford [6]
  MIC: 1.25 µg/mL
[7]
  MIC: 2.5 µg/mL
M. gallisepticum S6
  in vitro MIC: 5.0 µg/mL
M. suipneumoniae JF 435
  in vitro MIC: 0.5 µg/mL
[8]
  in vitro MIC: 0.1 µg/mL
Staph aureus Oxford [9]
  MIC: 1.0 µm/ml
Strep faecalis I
  MIC: 25.0 µm/ml
M. suipneumoniae TAM 6N
  in vitro MIC: 0.5 µg/mL
Bord bronchiseptica BO8
  MIC: 80 µg/mL
[10]
  MIC: >100 µm/ml
M. suipneumoniae NB12
  in vitro MIC: 0.25 µg/mL
S dublin S7
  MIC: >80 µg/mL
M. hyorhinis ATCC 25021
  in vitro MIC: 0.25 µg/mL
Past Haemolytica PA5
  MIC: 5 µg/mL
Strep pneumoniae CN33
  MIC: 0.5 µm/ml
M. suipneumoniae MS 16
  in vitro MIC: 0.25 µg/mL
[11]
  MIC: 1.25 µg/mL
K aerogenes A
  MIC: >100 µm/ml
P mirabilis 889
  MIC: 100 µm/ml
[12]
  in vitro MIC: 0.5 µg/mL
Staph aureus W2827
  MIC: 2.5 µm/ml
Bord bronchisptica BO9
  MIC: 20 µg/mL
E coli NCTC 10418 [13]
  MIC: >80 µg/mL
[14]
  MIC: ^a0.5 µm/ml
Strep agalactiae SPA1
  MIC: .625 µg/mL
Strep pyogenes A R80/421
  MIC: ^b0.5 µm/ml
E coli NCTC 10418 [15]
  MIC: >100 µm/ml
[16]
  in vitro MIC: 0.5 µg/mL
Ps aeruginosa 10662
  MIC: >100 µm/ml
[17]
  MIC: 0.1 µm/ml
[18]
  MIC: 2.5 µg/mL
Strep uberis SPU1
  MIC: .312 µg/mL
Strep dysgalaciae SPD1
  MIC: .156 µg/mL
M. suipneumoniae UCD 1
  in vitro MIC: 0.5 µg/mL
M. pneumoniae ATCC 15492
  in vitro MIC: 1.0 µg/mL
M. bovis NCTC 10131
  in vitro MIC: 0.025 µg/mL
E coli E1
  MIC: >80 µg/mL
[19]
  in vitro MIC: 0.25 µg/mL
